Results published in patent US10294217B2, “Fluoroindole derivatives as muscarinic M1 receptor positive allosteric modulators” (Suven Life Sciences Limited, priority 2015, dated 2019).
Where two headings read alike, the source gives them in different places.

Key:
[1] = tested on: Male Wistar rats; experiment: Object recognition task model; assay type: in vivo; conditions: p.o.; for Exploration time Familiar object / Exploration time Novel object: mean ± S.E.M, choice trial 24 hours after T1
Method: Object Recognition Task Model
(§1) The cognition enhancing properties of compounds of this invention were estimated by using this model.
(§2) Male Wistar rats (8-10 weeks old) were used as experimental animals. Four animals were housed in each cage. Animals were kept on 20% food deprivation from a day prior to experimentation. Water was provided ad libitum throughout the experiment. Animals were maintained on a 12 hours light/dark cycle in temperature and humidity controlled room. The experiment was carried out in an open field made up of acrylic. Rats were habituated to individual arenas (open field) for 1 hour in the absence of any objects on day 1.
One group of 12 rats received vehicle and another set of animals received compound of the formula (I), before the familiar (T1) and choice (T2) trials. During the familiarization phase, (T1), the rats were placed individually in the arena for 3 minutes, in which two identical objects (a1 and a2) were positioned 10 cm from the wall. 24 hours after T1, trial for long-term memory test was performed. The same rats were placed in the same arena as they were placed in T1 trial. During the choice phase (T2) rats were allowed to explore the arena for 3 minutes in presence of a copy of familiar object (a3) and one novel object (b). During the T1 and T2 trial, explorations of each object (defined as sniffing, licking, chewing or having moving vibrissae whilst directing the nose towards the object at a distance of less than 1 cm) were recorded using stopwatch. • T1 is the total time spent exploring the familiar objects (a1+a2). • T2 is the total time spent exploring the familiar object and novel object (a3+b). • Discriminative index=Time spent with novel object/(time spent with novel and familiar object).
The object recognition test was performed as described by Behavioural Brain Research, 1988, 31, 47-59 and the results are provided in table 5.

[2] = tested on: sAPPα; experiment: Estimation of cortical sAPPα levels in rat brain (ELISA); assay type: in vivo, Male Wistar rats; conditions: i.p.; for sAPPα levels: cortex, 60 minutes after treatment, mean ± SEM (n = 5/group); for Inference: cortical sAPPα levels, 1.0-10.0 mg/kg
Method: Estimation of Cortical sAPPα Levels in Rat Brain
Male Wistar rats (250±45 grams) were randomly divided into different treatment groups (n=5 per group). Control group of rats were administered with intraperitoneal (i.p.) injection of vehicle (99.75% of 0.25% hydroxyethylcellulose HHX+0.25% tween 80 for examples 8 and 22; 5% Pharmasolve+45% propylene glycol+50% polyethylene glycol-400 for example 1). Rats in treatment groups were allocated to one dose of test compound and administered with a single intraperitoneal injection of test compound (dose volume of 2 mL/kg). Rats were sacrificed by cervical dislocation at 60 minutes after treatment. Brains were quickly isolated and the cortex was dissected out at −20° C. The cortex was immediately kept on a dry ice and weighed before being stored at −80° C. until quantification of sAPPα using Enzyme-linked immunosorbent assay (ELISA).
• 1. Protease inhibitor cocktail tablets (complete mini, Make-Roche; 1 tablet for 8 mL) were added to the Tris Buffer Saline (TBS) prior to using the buffer for tissue processing. • 2. Cortical tissues were thawed and homogenized in five volumes of TBS and the solution was centrifuged at 15,000 rpm at 4° C. for 90 minutes. • 3. The supernatant was discarded and homogenized in five volumes of TBS. Samples were centrifuged at 15,000 rpm at 4° C. for 30 minutes. • 4. Supernatant was discarded and precipitate was sonicated in ten volumes of 50 mM Tris buffer (pH: 7.6) containing 6 M of Guanidine-HCl. Sonication was repeated four times with duration of five seconds every time. • 5. Resulting mixture was incubated at the room temperature for 30 minutes and centrifuged at 15,000 rpm at 4° C. for 30 minutes. Supernatant was diluted 100 times with EIA buffer prior to addition in the pre-coated ELISA plates. Measurement of sAPPα by ELISA Kit:
To investigate the role of an acute treatment of test compound on sAPPα levels, the expression of this protein was measured in samples obtained from brain homogenates of treated and untreated rats by employing ELISA assay. The entire procedure was followed as described in the ELISA kit manual (Mouse/Rat sAPPα (highly sensitive) assay kit, Catalog Number: JP27419, Immuno-Biological Laboratories Co. Ltd, Hamburg, Germany).
Statistical analyses were performed using the Graph Pad Prism (Version 4). Results are expressed as Mean±SEM levels of sAPPα expressed as percentage of control values obtained from rats treated with vehicle. Statistical significance after treatment was assessed using One-Way ANOVA followed by Dunnett's post test and the significance level was set below p value less than 0.05 and the results are tabulated in table 7.

[3] = target: human Muscarinic M1 receptor (Homo sapiens (Human), UniProt P11229); experiment: Allosteric potency EC50 for muscarinic M1 receptor (CHO cells, pCRE-Luc reporter); assay type: cell-based; conditions: luciferase activity, 4 hours
Method: Determination of Allosteric Potency EC50 Values for Muscarinic M1 Receptor:
A stable CHO cell line expressing recombinant human Muscarinic M1 receptor and pCRE-Luc reporter system was used for cell-based assay. The assay offers a non-radioactive based approach to determine binding of a compound to GPCRs. In this specific assay, the level of intracellular cyclic AMP which is modulated by activation or inhibition of the receptor is measured. The recombinant cells harbor luciferase reporter gene under the control of cAMP response element.
The above cells were grown in 96 well clear bottom white plates in Hams F12 medium containing 10% fetal bovine serum (FBS). Prior to the addition of compounds or standard agonist, cells were serum starved overnight. Increasing concentrations of test compounds were added along with EC20 of acetylcholine in OptiMEM medium to the cells. The incubation was continued at 37° C. in CO2 incubator for 4 hours. Medium was removed and cells were washed with phosphate buffered saline. The cells were lysed and luciferase activity was measured in a Luminometer. Luminescence units were plotted against the compound concentrations using Graphpad software. EC50 values of the compounds were defined as the concentration required in stimulating the luciferase activity by 50% in presence of EC20 of acetylcholine and the results are provided in table 1.

[4] = tested on: Male Wistar rats; experiment: Object recognition task model - scopolamine challenge; assay type: in vivo; conditions: p.o.; for Exploration time Familiar object / Exploration time Novel object: mean ± S.E.M, choice trial 3 minutes after T1
Method: Object Recognition Task Model—Scopolamine challenge
as §1, §2
Rats received vehicle or vehicle and scopolamine or compound of the formula (I) and scopolamine, before the familiar (T1). During the familiarization phase, (T1), the rats were placed individually in the arena for 3 minutes, in which two identical objects (a1 and a2) were positioned 10 cm from the wall. 3 minutes after T1, trial for memory test was performed. The same rats were placed in the same arena as they were placed in T1 trial. During the choice phase (T2) rats were allowed to explore the arena for 3 minutes in presence of a copy of familiar object (a3) and one novel object (b). During the T1 and T2 trial, explorations of each object (defined as sniffing, licking, chewing or having moving vibrissae whilst directing the nose towards the object at a distance of less than 1 cm) were recorded using stopwatch. • T1 is the total time spent exploring the familiar objects (a1+a2). • T2 is the total time spent exploring the familiar object and novel object (a3+b). • Discriminative index=Time spent with novel object/(time spent with novel and familiar object).

[5] = in presence of EC20 of acetylcholine, read-out: hM1 PAM EC50

**Q.** Which results are given for `Cl.O=C(N[C@H]1CCNC[C@H]1F)c1cn(Cc2ccnc(F)c2)c2c(F)ccc(F)c12` (single isomer, unassigned; isomer-i) [Example 22, Cis-N-(3-Fluoropiperidin-4-yl)-1-(2-fluoropyridin-4-ylmethyl)-4,7-difluoro-1H-indole-3-carboxamide hydrochloride (Isomer-I)]?
**A.** Inference ([1]; 3 mg/kg): Active; Exploration time Familiar object ([1]; 3 mg/kg): 8.21 ± 0.70 s; Exploration time Novel object ([1]; 3 mg/kg): 15.72 ± 2.25 s; sAPPα levels ([2]; 1.0 mg/kg): 143 ± 14 % of vehicle; sAPPα levels ([2]; 3.0 mg/kg): 164 ± 12 % of vehicle; sAPPα levels ([2]; 10.0 mg/kg): 176 ± 10 % of vehicle; Inference [2]: Active; EC50 ([3]; hM1 PAM EC50, in presence of EC20 of acetylcholine): 1.49 µM; Inference ([4]; 1 mg/kg): Active; Exploration time Familiar object ([4]; 1 mg/kg): 21.34 ± 3.65 s; Exploration time Novel object ([4]; 1 mg/kg): 29.70 ± 1.72 s

**Q.** Which Inference ([1]; 0.3 mg/kg) does the source give for `Cn1cc(Cn2cc(C(=O)N[C@H]3CCCC[C@@H]3O)c3c(F)cccc32)cn1` [Example 1, N-[(1S,2S)-2-Hydroxycyclohexyl]-1-(1-methyl-1H-pyrazol-4-ylmethyl)-4-fluoro-1H-indole-3-carboxamide] here?
**A.** Its Inference is “Active”.

**Q.** What about the “Exploration time Familiar object” value ([1]; 0.3 mg/kg) of the same compound?
**A.** Its value is 11.31 ± 1.07 s.

**Q.** What about the “Exploration time Novel object” value ([1]; 0.3 mg/kg) of the same compound?
**A.** Its value is 28.92 ± 3.54 s.

**Q.** And the sAPPα levels ([2]; 1.0 mg/kg)?
**A.** Its sAPPα levels is 155 ± 6 % of vehicle.

**Q.** What about the sAPPα levels ([2]; 3.0 mg/kg) of the same compound?
**A.** Its sAPPα levels is 153 ± 7 % of vehicle.

**Q.** And the sAPPα levels ([2]; 10.0 mg/kg)?
**A.** Its sAPPα levels is 142 ± 6 % of vehicle.

**Q.** What about the Inference [2] of the same compound?
**A.** Its Inference is “Active”.

**Q.** What about the EC50 [3, 5] of the same compound?
**A.** Its EC50 is 1.26 µM.

**Q.** What about the Inference ([4]; 0.3 mg/kg) of the same compound?
**A.** Its Inference is “Active”.

**Q.** And the “Exploration time Familiar object” value ([4]; 0.3 mg/kg)?
**A.** Its value is 7.54 ± 1.93 s.

**Q.** What about the “Exploration time Novel object” value ([4]; 0.3 mg/kg) of the same compound?
**A.** The value was 13.07 ± 1.79 s.

**Q.** Which Inference ([1]; 1 mg/kg) does the source give for `O=C(N[C@H]1CCCC[C@@H]1O)c1cn(Cc2ccnc(Cl)c2)c2cccc(F)c12` [Example 2, N-[(1S,2S)-2-Hydroxycyclohexyl]-1-(2-chloropyridin-4-ylmethyl)-4-fluoro-1H-indole-3-carboxamide] here?
**A.** Its Inference is “Active”.

**Q.** What about the “Exploration time Familiar object” value ([1]; 1 mg/kg) of the same compound?
**A.** Its value is 9.06 ± 1.75 s.

**Q.** What about the “Exploration time Novel object” value ([1]; 1 mg/kg) of the same compound?
**A.** Its value is 15.09 ± 2.19 s.

**Q.** What about the EC50 [3, 5] of the same compound?
**A.** Its EC50 is 0.681 µM.

**Q.** What about the Inference ([4]; 0.3 mg/kg) of the same compound?
**A.** The Inference was “Active”.

**Q.** And the “Exploration time Familiar object” value ([4]; 0.3 mg/kg)?
**A.** The value was 14.29 ± 1.92 s.

**Q.** What about the “Exploration time Novel object” value ([4]; 0.3 mg/kg) of the same compound?
**A.** The value was 20.93 ± 2.89 s.

**Q.** What does the source list for `Cn1cc(Cn2cc(C(=O)N[C@H]3CCCC[C@@H]3O)c3c(F)ccc(F)c32)cn1` [Example 5, N-[(1S,2S)-2-Hydroxycyclohexyl]-1-(1-methyl-1H-pyrazol-4-ylmethyl)-4,7-difluoro-1H-indole-3-carboxamide]?
**A.** Inference ([1]; 0.3 mg/kg): Active; Exploration time Familiar object ([1]; 0.3 mg/kg): 11.00 ± 0.81 s; Exploration time Novel object ([1]; 0.3 mg/kg): 19.64 ± 1.74 s; Inference ([4]; 1 mg/kg): Active; Exploration time Familiar object ([4]; 1 mg/kg): 13.61 ± 1.79 s; Exploration time Novel object ([4]; 1 mg/kg): 25.72 ± 3.67 s

**Q.** For `O=C(N[C@H]1CCCC[C@@H]1O)c1cn(Cc2ccnc(F)c2)c2cccc(F)c12` [Example 7, N-[(1S,2S)-2-Hydroxycyclohexyl]-1-(2-fluoropyridin-4-ylmethyl)-4-fluoro-1H-indole-3-carboxamide], which Inference ([1]; 1 mg/kg) is on record?
**A.** The Inference was “Active”.

**Q.** And the “Exploration time Familiar object” value ([1]; 1 mg/kg)?
**A.** The value was 9.16 ± 0.83 s.

**Q.** And the “Exploration time Novel object” value ([1]; 1 mg/kg)?
**A.** Its value is 19.56 ± 1.96 s.

**Q.** And the EC50 [3, 5]?
**A.** The EC50 was 1.36 µM.

**Q.** Which Inference ([1]; 0.3 mg/kg) does the source give for `O=C(N[C@H]1CCCC[C@@H]1O)c1cn(Cc2ccnc(F)c2)c2c(F)ccc(F)c12` [Example 8, N-[(1S,2S)-2-Hydroxycyclohexyl]-1-(2-fluoropyridin-4-ylmethyl)-4,7-difluoro-1H-indole-3-carboxamide] here?
**A.** The Inference was “Active”.

**Q.** And the “Exploration time Familiar object” value ([1]; 0.3 mg/kg)?
**A.** The value was 7.59 ± 1.02 s.

**Q.** What about the “Exploration time Novel object” value ([1]; 0.3 mg/kg) of the same compound?
**A.** The value was 14.36 ± 1.56 s.

**Q.** And the sAPPα levels ([2]; 1.0 mg/kg)?
**A.** The sAPPα levels was 120 ± 17 % of vehicle.

**Q.** What about the sAPPα levels ([2]; 3.0 mg/kg) of the same compound?
**A.** Its sAPPα levels is 137 ± 14 % of vehicle.

**Q.** What about the sAPPα levels ([2]; 10.0 mg/kg) of the same compound?
**A.** The sAPPα levels was 173 ± 10 % of vehicle.

**Q.** What about the Inference [2] of the same compound?
**A.** Its Inference is “Active”.

**Q.** What about the EC50 [3, 5] of the same compound?
**A.** Its EC50 is 0.192 µM.
